Structures are written as SMILES. Some results are limits rather than exact numbers.

For one experiment, the target named is T1, KDM2B (FBXL10) (Homo sapiens, UniProt Q8NHM5).
T1 sequence (Q8NHM5 1-650): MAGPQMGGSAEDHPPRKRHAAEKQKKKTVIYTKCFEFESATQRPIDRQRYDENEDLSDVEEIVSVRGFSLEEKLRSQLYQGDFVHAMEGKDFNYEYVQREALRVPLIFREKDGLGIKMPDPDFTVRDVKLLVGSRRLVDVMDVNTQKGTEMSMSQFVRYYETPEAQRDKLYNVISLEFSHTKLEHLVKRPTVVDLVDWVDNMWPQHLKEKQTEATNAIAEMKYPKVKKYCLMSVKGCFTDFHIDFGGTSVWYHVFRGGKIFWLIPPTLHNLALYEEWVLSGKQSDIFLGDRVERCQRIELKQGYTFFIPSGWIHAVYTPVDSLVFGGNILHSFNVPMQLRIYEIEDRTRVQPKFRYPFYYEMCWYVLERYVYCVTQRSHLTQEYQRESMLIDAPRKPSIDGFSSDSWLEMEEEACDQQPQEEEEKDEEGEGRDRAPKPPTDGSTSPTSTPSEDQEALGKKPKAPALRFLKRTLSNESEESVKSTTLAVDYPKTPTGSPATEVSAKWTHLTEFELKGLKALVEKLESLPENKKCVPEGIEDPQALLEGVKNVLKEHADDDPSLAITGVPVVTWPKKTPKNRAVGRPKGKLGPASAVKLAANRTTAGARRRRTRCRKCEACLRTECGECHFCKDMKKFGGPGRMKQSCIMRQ
Put plainly: Histone lysine demethylase AlphaLISA assay, KDM2B. It is filed as biochemical. Particulars: read-out: KDM2B HDME Inhibition IC50. An outline of the steps:
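Enzyme 10 min pre-incubation; + compound (3% DMSO soln) 10 min; + biotin-H3 methyl-Lys peptide, 25 μM L-Asc, 10 μM α-KG, RT. Read: AlphaLISA acceptor beads, then streptavidin donor beads, RT, dark.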

In the next experiment the target is T2, KDM4A (JMJD2A) (Homo sapiens, UniProt O75164).
T2 construct: 1-350; purchased BPS Bioscience, US; host or cells: E. coli
T2 sequence (O75164 1-350): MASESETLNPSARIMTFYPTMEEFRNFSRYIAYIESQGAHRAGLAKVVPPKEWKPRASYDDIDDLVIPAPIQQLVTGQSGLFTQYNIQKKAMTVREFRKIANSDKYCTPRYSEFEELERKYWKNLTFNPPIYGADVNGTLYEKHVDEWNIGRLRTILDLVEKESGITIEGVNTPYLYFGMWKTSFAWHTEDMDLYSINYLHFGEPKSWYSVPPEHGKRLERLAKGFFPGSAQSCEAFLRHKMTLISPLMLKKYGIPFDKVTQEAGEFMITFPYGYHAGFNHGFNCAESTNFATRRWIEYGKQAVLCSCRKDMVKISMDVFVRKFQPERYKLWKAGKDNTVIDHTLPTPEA
Put plainly: Histone lysine demethylase AlphaLISA assay, KDM4A. To be noted: read-out: KDM4A HDME Inhibition IC50. It is filed as biochemical. As to the method: Assays are performed analogously to the protocol described by PerkinElmer (Roy et al. PerkinElmer Technical Note: AlphaLISA #12, April 2011)
Enzymes are dissolved in enzyme buffer and incubated for 10 min before being added to 3% DMSO solutions of compounds in enzyme buffer. Incubated for another 10 minutes, before substrate solution is added and the reaction mixture is incubated at room temperature. 10 μL acceptor beads, suspended in Epigenetic Buffer (Perkin Elmer AL008) from stock, are added and the suspension is incubated in the dark at room temperature, before a suspension of streptavidin donor beads (Perkin Elmer 6760002) in Epigenetic Buffer is added. After incubation at room temperature in the dark the plates are read.
BK9M3: Biotin-ARTKQTAR(KMe3)STGGKAPRKQ-NH2 (Caslo, Denmark) […]
Substrate Solution: Substrate, 25 μM L-Asc, and 10 μM α-KG in Buffer A.

The next experiment has as its system MCF7 cells. Put plainly: Cell proliferation assay MCF7. Particulars: MCF7 human breast cancer cells; 120 hours; ATPlite 1 Step. The format is cell-based. An outline of the steps:
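After 120 h of compound exposure (duplicates, DMSO at most 0.5%) in DMEM GlutaMAX with 10% FBS, ATPlite 1 Step luminescence measured cellular ATP. Compound was added 24 h after seeding, at a density chosen for ~90% confluence at the end.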

`CN(C)CCCCNCc1cc(CNC2CC2)ccn1` [Compound 10, N-{[2-({[4-(dimethylamino)butyl]-amino}methyl)pyridin-4-yl]methyl}-cyclopropanamine]: the IC50 at KDM2B (FBXL10) and at KDM4A (JMJD2A) was greater than 2.5 µM throughout.
As for `CC1CCCCN1CCCNCc1cc(CNC2CC2)ccn1` (stereo not drawn) [Compound 11, N-{[2-({[3-(2-methylpiperidin-1-yl)propyl]amino}methyl)-pyridin-4-yl]methyl}-cyclopropanamine], the IC50 on KDM2B (FBXL10) and on KDM4A (JMJD2A) was greater than 2.5 µM in each case.
Take `CCCNCc1cc(CNC2CC2)ccn1` [Compound 12, N-({2-[(propylamino)methyl]-pyridin-4-yl}methyl)-cyclopropanamine]: the IC50 on KDM2B (FBXL10) and at KDM4A (JMJD2A) was greater than 2.5 µM throughout.
Take `CN(C)C(=O)CNCc1cc(CNCCF)ccn1` [Compound 14, 2-{[(4-{[(2-fluoroethyl)amino]-methyl}pyridin-2-yl)methyl]amino}-N,N-dimethylacetamide]: the IC50 on KDM2B (FBXL10) and at KDM4A (JMJD2A) was greater than 2.5 µM each time.
Take `CN(C)CCNCc1ccnc(CNCC(=O)N(C)C)c1` [Compound 15, 2-({[4-({[2-(dimethylamino)ethyl]-amino}methyl)pyridin-2-yl]methyl}amino)-N,N-dimethylacetamide]: the IC50 on KDM2B (FBXL10) and on KDM4A (JMJD2A) was greater than 2.5 µM throughout.
For `c1ccc(CN2CCC[C@H]2CNCc2cc(CNCC3CC3)ccn2)cc1` [Compound 16, {[(2S)-1-benzylpyrrolidin-2-yl]methyl}[(4-{[(cyclopropylmethyl)-amino]methyl}pyridin-2-yl)methyl]amine], the IC50 on KDM2B (FBXL10) and on KDM4A (JMJD2A) was greater than 2.5 µM in each case.
Turning to `CNCc1ccnc(CNCCCN(C)Cc2ccccc2)c1` [Compound 17, benzyl(methyl){3-[({4-[(methylamino)methyl]-pyridin-2-yl)methyl)-amino]propyl}-amine], the IC50 on KDM2B (FBXL10) and on KDM4A (JMJD2A) was greater than 2.5 µM in each case.
Turning to `CN(C)CCNCc1cc(CNC(C#N)C2CC2)ccn1` (stereo not drawn) [Compound 21, 2-cyclopropyl-2-({[2-({[2-(dimethylamino)ethyl]-amino}methyl)pyridin-4-yl]methyl}amino)-acetonitrile], the IC50 on KDM2B (FBXL10) and on KDM4A (JMJD2A) was greater than 2.5 µM each time.
With `CC1CC1/N=C/c1ccnc(CNCC(=O)N(C)C)c1` (stereo not drawn) [Compound 35, N,N-dimethyl-2-[({4-[N-(2-methylcyclopropyl)-carboximidoyl]pyridin-2-yl}methyl)amino]-acetamide], the values for the IC50 at KDM2B (FBXL10) and on KDM4A (JMJD2A) were 0.25 to 2.5 µM and less than 0.25 µM, respectively.
In the same order, the values of `CCSCCNCc1cc(/C=N/C2CC2)ccn1` [Compound 39, N-{[2-({[2-(ethylsulfanyl)-ethyl]amino}methyl)pyridin-4-yl]methylidene}-cyclopropanamine] are 0.25 to 2.5 µM and 0.25 to 2.5 µM.
In the case of `CN(CCCNCc1cc(/C=N/C2CC2)ccn1)Cc1ccccc1` [Compound 41, N-({2-[({3-[benzyl(methyl)amino]-propyl}amino)methyl]-pyridin-4-yl}methylidene)-cyclopropanamine], the results for the concentration for half-maximal inhibition (IC50) at KDM2B (FBXL10) and on KDM4A (JMJD2A) were greater than 2.5 µM and less than 0.25 µM, respectively.
For the molecule `CN(C)CCCCNCc1cc(/C=N\C2CC2)ccn1` [Compound 45, N-{[2-({[4-(dimethylamino)butyl]-amino}methyl)-pyridin-4-yl]methylidene}-cyclopropanamine], the IC50 on KDM2B (FBXL10) and at KDM4A (JMJD2A) was greater than 2.5 µM throughout.
Regarding `CN(C)CCCCCNCc1cc(/C=N/C2CC2)ccn1` [Compound 47, N-{[2-({[5-(dimethylamino)-pentyl]amino}-methyl)pyridin-4-yl]methylidene}-cyclopropanamine], the IC50 at KDM2B (FBXL10) and on KDM4A (JMJD2A) was greater than 2.5 µM in each case.
As for `CCN(CC)CCCCNC(=O)CNCc1cc(/C=N/C2CC2)ccn1` [Compound 48, 2-[({4-[N-cyclopropyl-carboximidoyl]pyridin-2-yl}methyl)amino]-N-[4-(diethylamino)-butyl]acetamide], the IC50 (commonly the concentration that gives 50% inhibition) at KDM2B (FBXL10) is greater than 2.5 µM; on KDM4A (JMJD2A), less than 0.25 µM.
Turning to `O=C(CNCc1cc(/C=N/C2CC2)ccn1)N1CCC[C@@H]1CN1CCCC1` [Compound 49, 2-[({4-[N-cyclopropyl-carboximidoyl]pyridin-2-yl}methyl)amino]-1-[(2R)-2-(pyrrolidin-1-ylmethyl)pyrrolidin-1-yl]ethan-1-one], the IC50 at KDM2B (FBXL10) is greater than 2.5 µM; at KDM4A (JMJD2A) it was less than 0.25 µM.
`CCN(CCC#N)C(=O)CNCc1cc(/C=N/C2CC2)ccn1` [Compound 50, N-(2-cyanoethyl)-2-[({4-[N-cyclopropyl-carboximidoyl]-pyridin-2-yl}methyl)amino]-N-ethylacetamide]: the values for the IC50 on KDM2B (FBXL10) and on KDM4A (JMJD2A) were 0.25 to 2.5 µM and less than 0.25 µM, respectively.
Turning to `CCN1CCCC1CNC(=O)CNCc1cc(/C=N/C2CC2)ccn1` (stereo not drawn) [Compound 51, 2-[({4-[N-cyclopropyl-carboximidoyl]-pyridin-2-yl}methyl)-amino]-N-[(1-ethylpyrrolidin-2-yl)methyl]acetamide], the figures for the half-inhibitory concentration (IC50) at KDM2B (FBXL10) and at KDM4A (JMJD2A) were greater than 2.5 µM and 0.25 to 2.5 µM, respectively.
On to `CN(CCCn1cccn1)C(=O)CNCc1cc(/C=N/C2CC2)ccn1` [Compound 52, 2-[({4-[N-cyclopropyl-carboximidoyl]-pyridin-2-yl}methyl)amino]-N-methyl-N-[3-(1H-pyrazol-1-yl)propyl]acetamide], for which the IC50 on KDM2B (FBXL10) and at KDM4A (JMJD2A) was 0.25 to 2.5 µM each time.
As for `O=C(CNCc1cc(/C=N/C2CC2)ccn1)NC1CCN(Cc2ccccc2)C1` (stereo not drawn) [Compound 53, N-(1-benzylpyrrolidin-3-yl)-2-[({4-[N-cyclopropyl-carboximidoyl]pyridin-2-yl}methyl)amino]-acetamide], the results for the IC50 on KDM2B (FBXL10) and on KDM4A (JMJD2A) were 0.25 to 2.5 µM and less than 0.25 µM, respectively.
On to `CN(Cc1ccccc1F)C(=O)CNCc1cc(/C=N/CCO)ccn1` [Compound 92, N-[(2-fluorophenyl)methyl]-2-[({4-[[(2-hydroxyethyl)imino]-methyl]pyridin-2-yl}methyl)amino]-N-methylacetamide], for which, at KDM2B (FBXL10), the IC50 is greater than 2.5 µM. Besides, in the experiment on MCF7 cells, the EC50 (usually the concentration at which the effect is half-maximal) is greater than 2.5 µM.
`OCC/N=C/c1ccnc(CNCCc2ccccc2OCc2ccccc2)c1` [Compound 93, 2-[({2-[({2-[2-(benzyloxy)phenyl]-ethyl}amino)methyl]-pyridin-4-yl}methylidene)-amino]ethan-1-ol]: the IC50 at KDM2B (FBXL10) is greater than 2.5 µM. Further, the EC50 in the experiment with MCF7 cells was greater than 2.5 µM.
Take `CCN(CCC#N)C(=O)CNCc1cc(/C=N/CCO)ccn1` [Compound 94, N-(2-cyanoethyl)-N-ethyl-2-[({4-[[(2-hydroxyethyl)imino]-methyl]pyridin-2-yl}methyl)amino]-acetamide]: the IC50 at KDM2B (FBXL10) is 0.25 to 2.5 µM. Also, in the experiment on MCF7 cells, the concentration for a half-maximal effect (EC50) is greater than 2.5 µM.
In the same order, the values of `CC(C)C[C@H](NCc1cc(/C=N/CCO)ccn1)C(=O)N1CCCCC1` [Compound 95, (2S)-2-[({4-[[(2-hydroxyethyl)imino]-methyl]pyridin-2-yl}methyl)amino]-4-methyl-1-(piperidin-1-yl)pentan-1-one] are greater than 2.5 µM and greater than 2.5 µM.
As to `CCN1CCCC1CNC(=O)CNCc1cc(C=O)ccn1` (stereo not drawn) [Compound 104, N-[(1-ethylpyrrolidin-2-yl)methyl]-2-{[(4-formylpyridin-2-yl)methyl]amino}-acetamide], the IC50 at KDM2B (FBXL10) was greater than 2.5 µM.
Regarding `CN(CC(=O)N1CCCCC1)Cc1cc(C=O)ccn1` [Compound 120, 2-({methyl[2-oxo-2-(piperidin-1-yl)ethyl]amino}-methyl)pyridine-4-carbaldehyde], the IC50 on KDM2B (FBXL10) was greater than 2.5 µM.

(Values after patent US9650339B2, “Inhibitors of histone demethylases” (Gilead Sciences, Inc., priority 2013, dated 2017).)
